Measured values taken from article PMC4519859, “Synthesis and Biological Evaluation of Novel Dehydroabietic Acid Derivatives Conjugated with Acyl-Thiourea Peptide Moiety as Antitumor Agents” (International Journal of Molecular Sciences, 2015).

What was measured:
Format in all cases: cell-based
SK-OV-3 = test: MTT cytotoxicity assay, SK-OV-3; conditions: Homo sapiens, 48 h, mean ± SD, three independent experiments
Description: (§1) The in vitro cytotoxic potency of DHAA acyl-thiourea derivatives 8a–8o and 9a–9o were evaluated by 3-(4,5-dimethylthiazol-2-yl)-2,5-diphenyltetrazolium bromide (MTT) assay against HeLa, SK-OV-3 and MGC-803 tumor cell lines, with 5-FU as the positive control.
(§2) General procedure for cytotoxic evaluation in vitro: HeLa, HepG2, SK-OV-3 and MGC-803 cells were seeded into 96-well microculture plates and allowed to adhere for 24 h, respectively. After cells were exposed to compounds at concentrations from 100 to 0.01 μM for 48 h, medium was aspirated and replenished with complete medium. IC50 was evaluated by MTT tetrazolium dye assay. Each experiment was performed three times; Statistical analysis: All statistical analysis was performed with SPSS Version 10 (SPSS, Chicago, IL, USA). Data was analyzed by one-way ANOVA. Mean separations were performed using the least significant difference method. Each experiment was replicated thrice, and all experiments yielded similar results. Measurements from all the replicates were combined, and treatment effects were analyzed.

MGC-803 = test: MTT cytotoxicity assay, MGC-803; conditions: Homo sapiens, 48 h, mean ± SD, three independent experiments
Description: as §1, §2

HeLa = test: MTT cytotoxicity assay, HeLa; conditions: Homo sapiens, 48 h, mean ± SD, three independent experiments
Description: as §1, §2

HL-7702 = test: MTT cytotoxicity assay, HL-7702 normal cells; conditions: L02, 48 h, normal human cells, mean ± SD, three independent experiments
Description: [The source words this procedure for another cell line and reports this cell line under the same test.] as §1, §2

SMILES | IC50 (SK-OV-3) | IC50 (MGC-803) | IC50 (HeLa) | IC50 (HL-7702)
O=c1[nH]cc(F)c(=O)[nH]1 [Compound 5-FU, 5-fluorouracil, reference compound] | 30.2 ± 1.13 µM | 34.9 ± 1.75 µM | 36.6 ± 1.55 µM | 
CC(C)c1ccc2c(c1)CCC1[C@](C)(C(=O)NC(=S)N[C@H](C)C(=O)Nc3ccccc3)CCC[C@]21C (stereo partly drawn) [Compound 8a, (1R,4aS)-7-Isopropyl-1,4a-dimethyl-N-(((R)-1-oxo-1-(phenylamino)propan-2-yl)carbamothioyl)-1,2,3,4,4a,9,10,10a-octahydrophenanthrene-1-carboxamide] | 26.5 ± 2.53 µM | 28.5 ± 1.79 µM | 31.1 ± 2.13 µM | 47.6 ± 2.43 µM
Cc1ccccc1NC(=O)[C@@H](C)NC(=S)NC(=O)[C@]1(C)CCC[C@]2(C)c3ccc(C(C)C)cc3CCC12 (stereo partly drawn) [Compound 8b, (1R,4aS)-7-Isopropyl-1,4a-dimethyl-N-(((R)-1-oxo-1-(o-tolylamino)propan-2-yl)carbamothioyl)-1,2,3,4,4a,9,10,10a-octahydrophenanthrene-1-carboxamide] | 42.8 ± 1.42 µM | 19.2 ± 1.66 µM | 29.2 ± 2.43 µM | 52.5 ± 1.25 µM
Cc1ccc(NC(=O)[C@@H](C)NC(=S)NC(=O)[C@]2(C)CCC[C@]3(C)c4ccc(C(C)C)cc4CCC23)cc1 (stereo partly drawn) [Compound 8c, (1R,4aS)-7-Isopropyl-1,4a-dimethyl-N-(((R)-1-oxo-1-(p-tolylamino)propan-2-yl)carbamothioyl)-1,2,3,4,4a,9,10,10a-octahydrophenanthrene-1-carboxamide] | 50.9 ± 4.11 µM | 24.9 ± 1.64 µM | 38.7 ± 3.65 µM | 61.7 ± 3.41 µM
CC(C)c1ccc2c(c1)CCC1[C@](C)(C(=O)NC(=S)N[C@H](C)C(=O)Nc3ccccc3Cl)CCC[C@]21C (stereo partly drawn) [Compound 8d, (1R,4aS)-N-(((R)-1-((2-Chlorophenyl)amino)-1-oxopropan-2-yl)carbamothioyl)-7-isopropyl-1,4a-dimethyl-1,2,3,4,4a,9,10,10a-octahydrophenanthrene-1-carboxamide] | 48.3 ± 4.21 µM | 20.6 ± 1.57 µM | 19.7 ± 1.23 µM | 69.4 ± 4.23 µM
CC(C)c1ccc2c(c1)CCC1[C@](C)(C(=O)NC(=S)N[C@H](C)C(=O)Nc3ccc(Cl)cc3)CCC[C@]21C (stereo partly drawn) [Compound 8e, (1R,4aS)-N-(((R)-1-((4-Chlorophenyl)amino)-1-oxopropan-2-yl)carbamothioyl)-7-isopropyl-1,4a-dimethyl-1,2,3,4,4a,9,10,10a-octahydrophenanthrene-1-carboxamide] | 36.1 ± 3.28 µM | 21.7 ± 1.69 µM | 36.1 ± 3.31 µM | 57.7 ± 3.66 µM
COc1ccccc1NC(=O)[C@@H](C)NC(=S)NC(=O)[C@]1(C)CCC[C@]2(C)c3ccc(C(C)C)cc3CCC12 (stereo partly drawn) [Compound 8f, (1R,4aS)-7-Isopropyl-N-(((R)-1-((2-methoxyphenyl)amino)-1-oxopropan-2-yl)carbamothioyl)-1,4a-dimethyl-1,2,3,4,4a,9,10,10a-octahydrophenanthrene-1-carboxamide] | 23 ± 3.01 µM | 17.9 ± 1.73 µM | 28.1 ± 2.11 µM | 44.7 ± 3.34 µM
COc1ccc(NC(=O)[C@@H](C)NC(=S)NC(=O)[C@]2(C)CCC[C@]3(C)c4ccc(C(C)C)cc4CCC23)cc1 (stereo partly drawn) [Compound 8g, (1R,4aS)-7-Isopropyl-N-(((R)-1-((4-methoxyphenyl)amino)-1-oxopropan-2-yl)carbamothioyl)-1,4a-dimethyl-1,2,3,4,4a,9,10,10a-octahydrophenanthrene-1-carboxamide] | 26.8 ± 2.47 µM | 18.6 ± 1.72 µM | 27.4 ± 2.43 µM | 43.6 ± 2.43 µM
CC(C)c1ccc2c(c1)CCC1[C@](C)(C(=O)NC(=S)N[C@H](C)C(=O)Nc3ccccc3F)CCC[C@]21C (stereo partly drawn) [Compound 8h, (1R,4aS)-N-(((R)-1-((2-Fluorophenyl)amino)-1-oxopropan-2-yl)carbamothioyl)-7-isopropyl-1,4a-dimethyl-1,2,3,4,4a,9,10,10a-octahydrophenanthrene-1-carboxamide] | 31.8 ± 2.36 µM | 26.1 ± 2.37 µM | 23.3 ± 1.55 µM | 53.5 ± 2.35 µM
CC(C)c1ccc2c(c1)CCC1[C@](C)(C(=O)NC(=S)N[C@H](C)C(=O)Nc3ccc(F)cc3)CCC[C@]21C (stereo partly drawn) [Compound 8i, (1R,4aS)-N-(((R)-1-((4-Fluorophenyl)amino)-1-oxopropan-2-yl)carbamothioyl)-7-isopropyl-1,4a-dimethyl-1,2,3,4,4a,9,10,10a-octahydrophenanthrene-1-carboxamide] | 32.5 ± 2.64 µM | 29.4 ± 2.77 µM | 30.2 ± 2.55 µM | 54.5 ± 2.34 µM
CC(C)c1ccc2c(c1)CCC1[C@](C)(C(=O)NC(=S)N[C@H](C)C(=O)Nc3ccccc3Br)CCC[C@]21C (stereo partly drawn) [Compound 8j, (1R,4aS)-N-(((R)-1-((2-Bromophenyl)amino)-1-oxopropan-2-yl)carbamothioyl)-7-isopropyl-1,4a-dimethyl-1,2,3,4,4a,9,10,10a-octahydrophenanthrene-1-carboxamide] | 39.1 ± 3.56 µM | 27.9 ± 3.26 µM | 22.8 ± 1.55 µM | 59.6 ± 3.54 µM
CC(C)c1ccc2c(c1)CCC1[C@](C)(C(=O)NC(=S)N[C@H](C)C(=O)Nc3ccc(Br)cc3)CCC[C@]21C (stereo partly drawn) [Compound 8k, (1R,4aS)-N-(((R)-1-((4-Bromophenyl)amino)-1-oxopropan-2-yl)carbamothioyl)-7-isopropyl-1,4a-dimethyl-1,2,3,4,4a,9,10,10a-octahydrophenanthrene-1-carboxamide] | 40.8 ± 3.57 µM | 30 ± 1.24 µM | 19 ± 1.46 µM | 54.6 ± 3.65 µM
Cc1cc(C)cc(NC(=O)[C@@H](C)NC(=S)NC(=O)[C@]2(C)CCC[C@]3(C)c4ccc(C(C)C)cc4CCC23)c1 (stereo partly drawn) [Compound 8l, (1R,4aS)-N-(((R)-1-((3,5-Dimethylphenyl)amino)-1-oxopropan-2-yl)carbamothioyl)-7-isopropyl-1,4a-dimethyl-1,2,3,4,4a,9,10,10a-octahydrophenanthrene-1-carboxamide] | 33 ± 2.59 µM | 13.9 ± 1.32 µM | 18.6 ± 1.24 µM | 55.3 ± 2.65 µM
CC(C)c1ccc2c(c1)CCC1[C@](C)(C(=O)NC(=S)N[C@H](C)C(=O)Nc3cccc4ccccc34)CCC[C@]21C (stereo partly drawn) [Compound 8m, (1R,4aS)-7-Isopropyl-1,4a-dimethyl-N-(((R)-1-(naphthalen-1-ylamino)-1-oxopropan-2-yl)carbamothioyl)-1,2,3,4,4a,9,10,10a-octahydrophenanthrene-1-carboxamide] | 49.4 ± 4.64 µM | 36.5 ± 3.24 µM | 46.6 ± 4.77 µM | 59.5 ± 4.65 µM
CC(C)c1ccc2c(c1)CCC1[C@](C)(C(=O)NC(=S)N[C@H](C)C(=O)Nc3ccccn3)CCC[C@]21C (stereo partly drawn) [Compound 8n, (1R,4aS)-7-Isopropyl-1,4a-dimethyl-N-(((R)-1-oxo-1-(pyridin-2-ylamino)propan-2-yl)carbamothioyl)-1,2,3,4,4a,9,10,10a-octahydrophenanthrene-1-carboxamide] | 25.2 ± 2.43 µM | 19.3 ± 1.32 µM | 14.3 ± 1.33 µM | 48.8 ± 2.44 µM
COc1cc(NC(=O)[C@@H](C)NC(=S)NC(=O)[C@]2(C)CCC[C@]3(C)c4ccc(C(C)C)cc4CCC23)cc(OC)c1OC (stereo partly drawn) [Compound 8o, (1R,4aS)-7-Isopropyl-1,4a-dimethyl-N-(((R)-1-oxo-1-((3,4,5-trimethoxyphenyl)amino)propan-2-yl)carbamothioyl)-1,2,3,4,4a,9,10,10a-octahydrophenanthrene-1-carboxamide] | 29.6 ± 2.67 µM | 22.7 ± 1.77 µM | 18.1 ± 1.23 µM | 49.2 ± 2.65 µM
CC(C)c1ccc2c(c1)CCC1[C@](C)(C(=O)NC(=S)N[C@H](Cc3ccccc3)C(=O)Nc3ccccc3)CCC[C@]21C (stereo partly drawn) [Compound 9a, (1R,4aS)-7-Isopropyl-1,4a-dimethyl-N-(((R)-1-oxo-3-phenyl-1-(phenylamino)propan-2-yl)carbamothioyl)-1,2,3,4,4a,9,10,10a-octahydrophenanthrene-1-carboxamide] | 17 ± 1.13 µM | 26.6 ± 3.25 µM | 25.7 ± 2.23 µM | 37.5 ± 1.44 µM
Cc1ccccc1NC(=O)[C@@H](Cc1ccccc1)NC(=S)NC(=O)[C@]1(C)CCC[C@]2(C)c3ccc(C(C)C)cc3CCC12 (stereo partly drawn) [Compound 9b, (1R,4aS)-7-Isopropyl-1,4a-dimethyl-N-(((R)-1-oxo-3-phenyl-1-(o-tolylamino)propan-2-yl)carbamothioyl)-1,2,3,4,4a,9,10,10a-octahydrophenanthrene-1-carboxamide] | 18.5 ± 1.44 µM | 14.1 ± 1.12 µM | 17.7 ± 1.34 µM | 38.6 ± 1.65 µM
Cc1ccc(NC(=O)[C@@H](Cc2ccccc2)NC(=S)NC(=O)[C@]2(C)CCC[C@]3(C)c4ccc(C(C)C)cc4CCC23)cc1 (stereo partly drawn) [Compound 9c, (1R,4aS)-7-Isopropyl-1,4a-dimethyl-N-(((R)-1-oxo-3-phenyl-1-(p-tolylamino)propan-2-yl)carbamothioyl)-1,2,3,4,4a,9,10,10a-octahydrophenanthrene-1-carboxamide] | 16.2 ± 1.98 µM | 19.2 ± 1.66 µM | 19.1 ± 1.08 µM | 36.2 ± 1.39 µM
CC(C)c1ccc2c(c1)CCC1[C@](C)(C(=O)NC(=S)N[C@H](Cc3ccccc3)C(=O)Nc3ccccc3Cl)CCC[C@]21C (stereo partly drawn) [Compound 9d, (1R,4aS)-N-(((R)-1-((2-Chlorophenyl)amino)-1-oxo-3-phenylpropan-2-yl)carbamothioyl)-7-isopropyl-1,4a-dimethyl-1,2,3,4,4a,9,10,10a-octahydrophenanthrene-1-carboxamide] | 16.9 ± 1.43 µM | 20.4 ± 3.41 µM | 17 ± 1.76 µM | 36.5 ± 1.43 µM
CC(C)c1ccc2c(c1)CC[C@H]1[C@](C)(C(=O)O)CCC[C@]21C [DHA, dehydroabietic acid] | 87.5 ± 4.12 µM | > 100 µM | 30.4 ± 3.45 µM | 
